Where two headings read alike, the source gives them in different places.
Key:
[1] = target: T1, CYP3A4 (Homo sapiens, UniProt P08684); assay: in vitro; conditions: microsomes, pH 7.4
[2] = target: T2, CYP1A2 (Homo sapiens, UniProt P05177); assay: CYP inhibition in human liver microsomes, CYP1A2; conditions: inhibitor 10 µM, HLM, NI: No Inhibitin
T2 sequence (P05177 1-516): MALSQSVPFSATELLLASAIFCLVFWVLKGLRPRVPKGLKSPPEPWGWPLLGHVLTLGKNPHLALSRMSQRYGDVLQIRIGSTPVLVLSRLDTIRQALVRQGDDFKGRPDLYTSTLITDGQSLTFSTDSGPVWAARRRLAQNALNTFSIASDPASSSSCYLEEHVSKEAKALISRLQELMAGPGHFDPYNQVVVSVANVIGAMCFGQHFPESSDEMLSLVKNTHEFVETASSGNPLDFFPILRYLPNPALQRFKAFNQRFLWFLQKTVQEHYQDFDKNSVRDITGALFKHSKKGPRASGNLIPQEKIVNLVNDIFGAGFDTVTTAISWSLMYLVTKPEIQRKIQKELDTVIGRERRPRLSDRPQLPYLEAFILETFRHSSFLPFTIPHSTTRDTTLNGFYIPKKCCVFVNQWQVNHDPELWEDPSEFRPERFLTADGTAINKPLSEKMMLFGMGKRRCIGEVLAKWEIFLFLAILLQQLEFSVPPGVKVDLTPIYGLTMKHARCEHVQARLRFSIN

[3] = target: T3, CYP2C8 (Homo sapiens, UniProt P10632); assay: CYP inhibition in human liver microsomes, CYP2C8; conditions: for % Inhibition of Control Activity CYP2C8: NI: No Inhibitin
T3 sequence (P10632 1-490): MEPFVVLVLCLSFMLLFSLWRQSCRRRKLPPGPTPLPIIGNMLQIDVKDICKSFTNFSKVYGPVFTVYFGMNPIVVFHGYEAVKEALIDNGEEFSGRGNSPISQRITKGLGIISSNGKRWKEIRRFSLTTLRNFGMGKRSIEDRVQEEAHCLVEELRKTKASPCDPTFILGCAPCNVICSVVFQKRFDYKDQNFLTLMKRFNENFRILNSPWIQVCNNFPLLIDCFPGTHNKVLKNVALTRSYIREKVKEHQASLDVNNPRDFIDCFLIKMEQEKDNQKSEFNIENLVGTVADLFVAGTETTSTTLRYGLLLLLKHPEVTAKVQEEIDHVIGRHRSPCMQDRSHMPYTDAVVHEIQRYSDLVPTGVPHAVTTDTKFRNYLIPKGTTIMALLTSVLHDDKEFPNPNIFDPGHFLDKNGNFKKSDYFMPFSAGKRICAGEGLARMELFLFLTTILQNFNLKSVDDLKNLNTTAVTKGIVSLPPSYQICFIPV

[4] = target: rCYP3A4 (Homo sapiens, UniProt P08684)
Sequence of rCYP3A4 (P08684 whole entry): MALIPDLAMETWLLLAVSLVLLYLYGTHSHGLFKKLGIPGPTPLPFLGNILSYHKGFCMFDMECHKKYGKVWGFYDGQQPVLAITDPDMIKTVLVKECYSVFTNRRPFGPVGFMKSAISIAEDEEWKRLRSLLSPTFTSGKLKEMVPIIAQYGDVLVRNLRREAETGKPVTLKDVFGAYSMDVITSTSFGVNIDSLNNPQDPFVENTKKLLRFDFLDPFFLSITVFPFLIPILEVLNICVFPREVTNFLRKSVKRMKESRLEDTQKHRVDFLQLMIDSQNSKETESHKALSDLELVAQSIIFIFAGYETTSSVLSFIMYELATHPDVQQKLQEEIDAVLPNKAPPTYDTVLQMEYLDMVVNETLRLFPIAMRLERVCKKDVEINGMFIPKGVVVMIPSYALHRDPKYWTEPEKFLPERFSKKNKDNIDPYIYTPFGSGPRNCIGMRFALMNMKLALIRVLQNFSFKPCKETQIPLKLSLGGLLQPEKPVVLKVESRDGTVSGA

[5] = target: T1, CYP3A4; assay: in vitro; conditions: microsomes, pH 7.4, % Inhibition of Control Activity CYP3A4 (substrate, testosterone)
[6] = target: CYP2C9 (Homo sapiens, UniProt P11712); assay: CYP inhibition in human liver microsomes, CYP2C9; conditions: for % Inhibition of Control Activity CYP2C9: NI: No Inhibitin
Sequence of CYP2C9 (P11712 whole entry): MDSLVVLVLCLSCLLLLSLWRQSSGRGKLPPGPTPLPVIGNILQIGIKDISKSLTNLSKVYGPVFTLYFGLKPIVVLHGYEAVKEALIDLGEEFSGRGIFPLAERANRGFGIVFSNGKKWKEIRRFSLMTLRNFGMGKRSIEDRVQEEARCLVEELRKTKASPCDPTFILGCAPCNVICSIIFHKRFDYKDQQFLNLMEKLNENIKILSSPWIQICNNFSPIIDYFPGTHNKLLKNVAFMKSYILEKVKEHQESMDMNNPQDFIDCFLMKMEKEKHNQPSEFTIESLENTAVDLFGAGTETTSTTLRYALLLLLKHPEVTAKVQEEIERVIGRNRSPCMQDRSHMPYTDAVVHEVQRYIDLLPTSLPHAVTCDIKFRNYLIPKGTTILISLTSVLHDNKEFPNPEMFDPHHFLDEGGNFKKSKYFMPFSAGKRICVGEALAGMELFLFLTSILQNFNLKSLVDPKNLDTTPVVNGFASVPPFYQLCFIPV

[7] = target: rCYP2D6 (Homo sapiens, UniProt P10635); assay: Metabolic stability / reaction phenotyping with recombinant human CYP2D6; conditions: for % Metabolized at 30 min Incubation with Human Liver Fractions/Enzymes rCYP2D6: 1 µM test compound, 100 pmol/mL
Sequence of rCYP2D6 (P10635 whole entry): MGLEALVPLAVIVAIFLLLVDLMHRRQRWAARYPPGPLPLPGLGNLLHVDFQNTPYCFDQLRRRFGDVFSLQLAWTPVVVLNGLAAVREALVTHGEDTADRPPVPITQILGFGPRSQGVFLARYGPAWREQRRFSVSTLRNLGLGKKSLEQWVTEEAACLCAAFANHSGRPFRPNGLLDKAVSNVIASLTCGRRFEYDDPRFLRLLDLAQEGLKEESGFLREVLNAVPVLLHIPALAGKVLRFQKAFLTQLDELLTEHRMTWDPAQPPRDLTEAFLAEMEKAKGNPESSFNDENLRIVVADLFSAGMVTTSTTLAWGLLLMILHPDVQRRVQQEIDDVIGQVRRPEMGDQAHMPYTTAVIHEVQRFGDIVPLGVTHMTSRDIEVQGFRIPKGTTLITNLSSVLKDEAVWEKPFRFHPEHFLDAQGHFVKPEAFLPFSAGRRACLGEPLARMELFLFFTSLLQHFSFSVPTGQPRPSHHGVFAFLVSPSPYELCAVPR

[8] = target: T4, rCYP2C8 (Homo sapiens, UniProt P10632); assay: Metabolic stability / reaction phenotyping with recombinant human CYP2C8; conditions: for % Metabolized at 30 min Incubation with Human Liver Fractions/Enzymes rCYP2C8: 1 µM test compound, 100 pmol/mL
T4 sequence (P10632 1-490): T3 sequence (P10632 1-490)

[9] = target: rCYP2C9 (Homo sapiens, UniProt P11712); assay: Metabolic stability / reaction phenotyping with recombinant human CYP2C9; conditions: for % Metabolized at 30 min Incubation with Human Liver Fractions/Enzymes rCYP2C9: 1 µM test compound, 100 pmol/mL
Sequence of rCYP2C9 (P11712 whole entry): as the sequence (P11712 whole entry) above

[10] = target: CYP2C19 (Homo sapiens, UniProt P33261); assay: CYP inhibition in human liver microsomes, CYP2C19; conditions: inhibitor 10 µM, HLM, NI: No Inhibitin
Sequence of CYP2C19 (P33261 whole entry): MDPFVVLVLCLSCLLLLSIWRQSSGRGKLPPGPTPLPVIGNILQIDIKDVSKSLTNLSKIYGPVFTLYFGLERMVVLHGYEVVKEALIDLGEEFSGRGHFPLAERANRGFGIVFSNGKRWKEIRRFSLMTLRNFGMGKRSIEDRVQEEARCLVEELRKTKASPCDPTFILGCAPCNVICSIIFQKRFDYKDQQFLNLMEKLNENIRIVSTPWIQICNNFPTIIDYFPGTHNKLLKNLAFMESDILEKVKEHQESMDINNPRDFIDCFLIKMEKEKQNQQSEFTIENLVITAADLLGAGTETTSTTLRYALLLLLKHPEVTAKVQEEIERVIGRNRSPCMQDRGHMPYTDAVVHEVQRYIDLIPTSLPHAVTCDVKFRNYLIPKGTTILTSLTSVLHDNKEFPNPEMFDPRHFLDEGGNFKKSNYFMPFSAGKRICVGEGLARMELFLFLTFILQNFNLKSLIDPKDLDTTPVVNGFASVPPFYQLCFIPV

[11] = Metabolic stability, incubation with human liver microsomes; conditions: 1 µM test compound, 0.5 mg/mL protein
[12] = target: T5, rCYP1A2 (Homo sapiens, UniProt P05177); assay: Metabolic stability / reaction phenotyping with recombinant human CYP1A2; conditions: for % Metabolized at 30 min Incubation with Human Liver Fractions/Enzymes rCYP1A2: 1 µM test compound, 100 pmol/mL
T5 sequence (P05177 1-516): T2 sequence (P05177 1-516)

[13] = target: rCYP2C19 (Homo sapiens, UniProt P33261); assay: Metabolic stability / reaction phenotyping with recombinant human CYP2C19; conditions: for % Metabolized at 30 min Incubation with Human Liver Fractions/Enzymes rCYP2C19: 1 µM test compound, 100 pmol/mL
Sequence of rCYP2C19 (P33261 whole entry): as above

[14] = Metabolic stability, incubation with human liver cytosol; assay type: in vitro ADME; conditions: 1 µM test compound, 1 mg/mL protein
[15] = cited from earlier work
[16] = target: T1, CYP3A4; conditions: microsomes
[17] = human, human liver microsomes, pH 7.4, probe paclitaxel
[18] = human, recombinant enzyme, pH 7.4
[19] = human, recombinant human CYP2D6, 1 µM, pH 7.4
[20] = human, recombinant human CYP2C8, 1 µM, pH 7.4
[21] = human, recombinant human CYP2C9, 1 µM, pH 7.4
[22] = human, recombinant human CYP1A2, 1 µM, pH 7.4

T1 sequence (P08684 2-503): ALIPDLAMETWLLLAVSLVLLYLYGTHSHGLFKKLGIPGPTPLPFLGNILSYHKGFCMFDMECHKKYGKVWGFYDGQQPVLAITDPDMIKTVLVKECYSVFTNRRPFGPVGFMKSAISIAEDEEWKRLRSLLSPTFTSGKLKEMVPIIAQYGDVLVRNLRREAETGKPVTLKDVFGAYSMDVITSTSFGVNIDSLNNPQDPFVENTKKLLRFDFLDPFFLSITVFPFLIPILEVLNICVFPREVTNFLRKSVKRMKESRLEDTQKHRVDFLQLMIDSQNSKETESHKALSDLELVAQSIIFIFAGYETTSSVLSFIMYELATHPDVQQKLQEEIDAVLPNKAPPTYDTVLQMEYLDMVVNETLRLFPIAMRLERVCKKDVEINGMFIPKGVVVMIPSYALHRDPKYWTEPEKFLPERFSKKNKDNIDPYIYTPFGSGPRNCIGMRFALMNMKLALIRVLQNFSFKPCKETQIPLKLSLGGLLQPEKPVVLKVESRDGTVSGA

CC(C)(O)c1ccccc1CC[C@@H](SCC1(CC(=O)O)CC1)c1cccc(/C=C/c2ccc3ccc(Cl)cc3n2)c1 [Montelukast, montelukast, reference compound]
inhibition at 2 µM [1]: 20%
inhibition at 10 µM [1]: 48%
% Inhibition of Control Activity CYP1A2 ([2]; 10 µM): 24.96%
inhibition at 2 µM [3, 17]: 93.7%
inhibition at 10 µM [3, 17]: 97.3%
Predicted Microsomal Clint, CYP3A4 ([4]; human, pH 7.4): 19.054 µL/min/mg Protein
% Metabolized at 30 min Incubation with Human Liver Fractions/Enzymes rCYP3A4 ([4]; human, recombinant enzyme, 0.5 h, pH 7.4): 40.25%
% Contribution of CYP Enzymes (fmCYP) in Metabolism, CYP3A4 [4, 18]: 47.07%
rCYP Clint, CYP3A4 [4, 18]: 0.172 µL/min/pmol
inhibition at 2 µM [5]: 0.79%
inhibition at 10 µM [5]: 11.2%
IC50 [6]: 1340 nM
% Metabolized at 30 min Incubation with Human Liver Fractions/Enzymes rCYP2D6 [7]: 7.46%
% Contribution of CYP Enzymes (fmCYP) in Metabolism, CYP2D6 [7, 19]: 0.64%
Predicted Microsomal Clint, CYP2D6 [7, 19]: 0.258 µL/min/mg Protein
rCYP Clint, CYP2D6 [7, 19]: 0.026 µL/min/pmol
% Metabolized at 30 min Incubation with Human Liver Fractions/Enzymes rCYP2C8 [8]: 52.29%
% Contribution of CYP Enzymes (fmCYP) in Metabolism, CYP2C8 [8, 20]: 39.00%
Predicted Microsomal Clint, CYP2C8 [8, 20]: 15.789 µL/min/mg Protein
rCYP Clint, CYP2C8 [8, 20]: 0.247 µL/min/pmol
% Metabolized at 30 min Incubation with Human Liver Fractions/Enzymes rCYP2C9 [9]: 10.85%
% Contribution of CYP Enzymes (fmCYP) in Metabolism, CYP2C9 [9, 21]: 9.08%
Predicted Microsomal Clint, CYP2C9 [9, 21]: 3.675 µL/min/mg Protein
rCYP Clint, CYP2C9 [9, 21]: 0.038 µL/min/pmol
% Inhibition of Control Activity CYP2C19 ([10]; 10 µM): 22.70%
% Metabolized at 30 min Incubation with Human Liver Fractions/Enzymes HLM [11]: 25.71%
% Metabolized at 30 min Incubation with Human Liver Fractions/Enzymes rCYP1A2 [12]: 9.37%
% Contribution of CYP Enzymes (fmCYP) in Metabolism, CYP1A2 [12, 22]: 4.21%
Predicted Microsomal Clint, CYP1A2 [12, 22]: 1.705 µL/min/mg Protein
rCYP Clint, CYP1A2 [12, 22]: 0.033 µL/min/pmol
% Metabolized at 30 min Incubation with Human Liver Fractions/Enzymes rCYP2C19 [13]: 0.00%
% Metabolized at 30 min Incubation with Human Liver Fractions/Enzymes Cytosol [14]: 10.13%

triclabendazole sulfone
% Inhibition of Control Activity CYP1A2 [2]: 8.60%
% Inhibition of Control Activity CYP2C8 ([3]; inhibitor 2 µM, HLM): 65.36%
% Inhibition of Control Activity CYP2C8 ([3]; inhibitor 10 µM, HLM): 92.88%
IC50 ([3]; read-out: IC50 CYP 2C8, HLM): 1050 nM
Predicted Microsomal Clint, CYP3A4 [4]: 3.591 µL/min/mg Protein
% Metabolized at 30 min Incubation with Human Liver Fractions/Enzymes rCYP3A4 ([4]; 1 µM test compound, 100 pmol/mL, 30 min): 9.25%
rCYP Clint, CYP3A4 ([4]; human, recombinant enzyme): 0.032 µL/min/pmol
% Contribution of CYP Enzymes (fmCYP) in Metabolism, CYP3A4 ([4]; recombinant enzyme): 2.67%
Cmax ([15]; human patients at therapeutic doses of triclabendazole): 2290 nM
half-life ([15]; humans): 11 to 12 h
% Inhibition of Control Activity CYP2C9 ([6]; inhibitor 2 µM, HLM): 78.78%
% Inhibition of Control Activity CYP2C9 ([6]; inhibitor 10 µM, HLM): 96.15%
IC50 ([6]; read-out: IC50 CYP 2C9, HLM): 690 nM
% Inhibition of Control Activity CYP3A4 (substrate, testosterone) ([16]; 2 µM): 4.09%
% Inhibition of Control Activity CYP3A4 (substrate, testosterone) ([16]; 10 µM): 8.63%
% Metabolized at 30 min Incubation with Human Liver Fractions/Enzymes rCYP2D6 [7]: 0.00%
% Metabolized at 30 min Incubation with Human Liver Fractions/Enzymes rCYP2C8 [8]: 0.00%
Predicted Microsomal Clint, CYP2C9 [9]: 130.447 µL/min/mg Protein
% Metabolized at 30 min Incubation with Human Liver Fractions/Enzymes rCYP2C9 [9]: 98.31%
rCYP Clint, CYP2C9 ([9]; human, recombinant enzyme): 1.359 µL/min/pmol
% Contribution of CYP Enzymes (fmCYP) in Metabolism, CYP2C9 ([9]; recombinant enzyme): 97.11%
% Inhibition of Control Activity CYP2C19 [10]: 5.05%
% Metabolized at 30 min Incubation with Human Liver Fractions/Enzymes HLM [11]: 52.20%
Predicted Microsomal Clint, CYP1A2 [12]: 0.069 µL/min/mg Protein
% Metabolized at 30 min Incubation with Human Liver Fractions/Enzymes rCYP1A2 [12]: 0.40%
rCYP Clint, CYP1A2 ([12]; human, recombinant enzyme): 0.001 µL/min/pmol
% Contribution of CYP Enzymes (fmCYP) in Metabolism, CYP1A2 ([12]; recombinant enzyme): 0.05%
Predicted Microsomal Clint, CYP2C19 [13]: 0.228 µL/min/mg Protein
% Metabolized at 30 min Incubation with Human Liver Fractions/Enzymes rCYP2C19 [13]: 3.53%
rCYP Clint, CYP2C19 ([13]; human, recombinant enzyme): 0.012 µL/min/pmol
% Contribution of CYP Enzymes (fmCYP) in Metabolism, CYP2C19 ([13]; recombinant enzyme): 0.17%
% Metabolized at 30 min Incubation with Human Liver Fractions/Enzymes Cytosol [14]: 0.00%

— publication PMC6416464 (Drug Metabolism Letters, 2018)
